Experimental data from the supplement of paper PMC10307832.

What was measured:
Assay in all cases: relative viability (nuclei count vs DMSO), 5 days (fraction); higher = more cells survive
Imatinib + Luminespib = compound: Cc1ccc(NC(=O)c2ccc(CN3CCN(C)CC3)cc2)cc1Nc1nccc(-c2cccnc2)n1 [Imatinib] + CCNC(=O)c1noc(-c2cc(C(C)C)c(O)cc2O)c1-c1ccc(CN2CCOCC2)cc1 [Luminespib] (partner 0.01 µM)
How it was run: (§1)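 Dosing by pin tool came one day after lung cancer cell lines were seeded in 1536-well plates, using either one drug or a fixed anchor-drug dose plus five library-drug doses (not always all listed) in √10 steps. After 5 days, nuclei were counted on 4× images. Relative viability is treated-well nuclei count divided by vehicle-well nuclei count, and values are medians of duplicate plates.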

Imatinib + Decitabine = compound: Cc1ccc(NC(=O)c2ccc(CN3CCN(C)CC3)cc2)cc1Nc1nccc(-c2cccnc2)n1 [Imatinib] + Nc1ncn([C@H]2C[C@H](O)[C@@H](CO)O2)c(=O)n1 [Decitabine] (partner 2 µM)
How it was run: as §1

Imatinib + Dasatinib = compound: Cc1ccc(NC(=O)c2ccc(CN3CCN(C)CC3)cc2)cc1Nc1nccc(-c2cccnc2)n1 [Imatinib] + Cc1nc(Nc2ncc(C(=O)Nc3c(C)cccc3Cl)s2)cc(N2CCN(CCO)CC2)n1 [Dasatinib] (partner 0.075 µM)
How it was run: as §1

Imatinib + Olaparib = compound: Cc1ccc(NC(=O)c2ccc(CN3CCN(C)CC3)cc2)cc1Nc1nccc(-c2cccnc2)n1 [Imatinib] + O=C(c1cc(Cc2n[nH]c(=O)c3ccccc23)ccc1F)N1CCN(C(=O)C2CC2)CC1 [Olaparib] (partner 8 µM)
How it was run: as §1

Row | Cell Line | relative viability (Imatinib + Luminespib; first compound 0.02 µM) | relative viability (Imatinib + Luminespib; first compound 0.06325 µM) | relative viability (Imatinib + Luminespib; first compound 0.2 µM) | relative viability (Imatinib + Luminespib; first compound 0.6325 µM) | relative viability (Imatinib + Luminespib; first compound 2 µM) | relative viability (Imatinib + Decitabine; first compound 0.02 µM) | relative viability (Imatinib + Decitabine; first compound 0.06325 µM) | relative viability (Imatinib + Decitabine; first compound 0.2 µM) | relative viability (Imatinib + Decitabine; first compound 0.6325 µM) | relative viability (Imatinib + Decitabine; first compound 2 µM) | relative viability (Imatinib + Dasatinib; first compound 0.02 µM) | relative viability (Imatinib + Dasatinib; first compound 0.06325 µM) | relative viability (Imatinib + Dasatinib; first compound 0.2 µM) | relative viability (Imatinib + Dasatinib; first compound 0.6325 µM) | relative viability (Imatinib + Dasatinib; first compound 2 µM) | relative viability (Imatinib + Olaparib; first compound 0.02 µM) | relative viability (Imatinib + Olaparib; first compound 0.06325 µM) | relative viability (Imatinib + Olaparib; first compound 0.2 µM) | relative viability (Imatinib + Olaparib; first compound 0.6325 µM) | relative viability (Imatinib + Olaparib; first compound 2 µM)
1 | NCI-H1651 | 0.926 | 0.829 | 0.947 | 0.749 | 0.83 | 0.56 | 0.297 | 0.643 | 0.591 | 0.599 | 0.333 | 0.355 | 0.427 | 0.378 | 0.414 | 0.173 | 0.231 | 0.177 | 0.19 | 0.166
2 | NCI-H727 | 0.319 |  | 0.242 | 0.323 | 0.31 |  |  | 0.904 | 0.84 | 0.808 | 0.433 |  | 0.331 | 0.234 | 0.463 | 0.644 |  | 0.696 | 0.712 | 0.664
3 | SK-MES-1 | 0.906 |  | 0.804 | 0.714 | 0.873 | 0.379 | 0.412 | 0.413 | 0.417 | 0.334 | 0.372 | 0.309 | 0.372 | 0.318 | 0.337 | 0.778 | 0.742 | 0.92 | 0.684 | 0.711
4 | BEN | 0.402 |  | 0.29 | 0.355 | 0.156 | 0.711 | 0.557 | 0.738 | 0.732 | 0.732 | 0.312 |  | 0.307 | 0.339 | 0.296 | 1.2 | 1.14 | 1.01 | 1.08 | 1.06
5 | NCI-H2170 | 0.901 | 0.395 | 0.526 | 0.502 | 0.735 | 0.463 | 0.492 | 0.486 | 0.454 | 0.458 | 0.636 | 0.582 | 0.477 | 0.48 | 0.411 | 0.635 | 0.585 | 0.663 | 0.69 | 0.578
6 | NCI-H1975 | 0.254 | 0.191 | 0.201 | 0.178 | 0.274 | 0.365 | 0.373 | 0.369 | 0.38 | 0.365 | 0.426 | 0.262 | 0.38 | 0.371 | 0.259 | 0.756 | 0.815 | 0.947 | 0.803 | 0.712
7 | NCI-H1395 | 0.79 | 0.697 | 0.653 | 0.737 | 0.676 | 0.754 |  | 0.656 | 0.678 | 0.69 | 0.438 | 0.347 | 0.381 | 0.393 | 0.418 | 0.455 |  | 0.405 | 0.428 | 0.409
8 | LC-2-ad | 1.23 | 0.744 | 0.935 | 1 | 1.07 | 0.816 |  | 0.948 | 0.824 | 0.759 | 0.603 | 0.545 | 0.461 | 0.484 | 0.588 | 0.756 |  | 0.751 | 0.761 | 0.694
9 | NCI-H647 | 0.198 | 0.121 | 0.134 | 0.119 | 0.146 | 0.454 | 0.432 | 0.421 | 0.366 | 0.37 | 0.198 | 0.183 | 0.142 | 0.181 | 0.148 | 0.803 | 0.67 | 0.792 | 0.588 | 0.495
